Test results: patent publication US7851436B2, “Inhibition of migration and induction of cell death by the type II collagen amino propeptides” (Washington University, priority 2007, dated 2010)
pIC50: −log10 of the molar value. “Also recorded” adds a separate entry of the source.

How the values were obtained:
Ch-1 cells [1] = assay: Cell adhesion assay (Ch-1 cells on wells coated with recombinant proteins); format: cell-based, human; conditions: wells coated with recombinant protein
Protocol: Cell Adhesion Assay. Cell adhesion assays were performed using a spectrometric method. A 96-well plate was coated at 4° C. overnight with recombinant proteins. Wells were washed three times with RPMI-1640 medium containing 10% FBS. Ch-1 cells were harvested with limited trypsin digestion and plated at 5×10^4 cells per well in RPMI-1640 medium supplemented with 10% FBS for an hours. Proteins were added and incubation continued for 1 hour. The wells were washed three times with pre-warmed PBS to remove non-adherent cells. The adherent cells were fixed with 4% paraformaldehyde in PBS for 10 minutes at room temperature and stained with 0.5% toluidine blue for 5 minutes. The wells were rinsed with water and cells were solubilized with 0.1% SDS. Absorbance at 595 nm was recorded on a SpectraMax plate reader. Synthetic blocking peptides and antibodies to αVβ3 and αVβ5 integrin were pre-incubated with cells for 15 to 30 mins before they were added onto the wells in the inhibition assays.
Cell Culture. Human Chondrosarcoma cell line (Ch-1) was isolated from a portion of chondrosarcoma tumor (Chansky et al., J Orthop Res. (1998) 16(5):521-30). The Ch-1 cell line was maintained in RPMI-1640 supplemented with 10% FBS and at 37° C. in a humidified, 5% CO2 atmosphere.

Ch-1 cells [2] = assay: Detection of cell death in Ch-1 cells; format: cell-based, human; conditions: 0.8 μM
Protocol: Cell Culture. Human Chondrosarcoma cell line (Ch-1) was isolated from a portion of chondrosarcoma tumor. The Ch-1 cell line was maintained in RPMI-1640 supplemented with 10% FBS and at 37° C. in a humidified, 5% CO2 atmosphere. Human chondrocytes were obtained from Dr. Davis Adkisson (ISTO Technologies, St. Louis) or isolated from macroscopically intact tissue obtained from total joint arthroplasty as described (Bassleer et al., 1998). HeLa 229 cells and MDA-MB 231 cell lines were provided by Dr. Kathy Weilbaecher (Washington University) and were cultured in RPMI medium supplemented with 10% FBS. HUVEC cells were a gift from Dr. William Frazier (Washington University) and were cultured in M199 Earle's medium with 10 units/ml of penicillin, 5 μg/ml streptomycin and 0.25 μg/ml Fungizone supplemented with 10% FBS, 0.1 mg/ml L-glutamine, 25 mM Hepes, 16 units/ml of heparin (Sigma) and 0.1 mg/ml endothelial cell mitogen (Biochemical Technologies).
(§1) Detection of Cell Death. Cells were cultured to confluence in a 24-well plate pre-coated with type I collagen, fibronectin (Sigma), and ECM Matrigel (Becton Dickinson). Proteins in serum-free medium were added to the cells. Cells were monitored by light microscopy and images were digitally photographed using a Q capture Retiga 2000R camera. Quantification of cells remaining in the well was performed by washing with PBS for three times, fixing with 4% paraformaldehyde. The cells per field (×400) were counted for three field per well (3 wells per measurement). The mean number and standard deviation (SD) were calculated.

HeLa 229 cells = assay: Cell survival assay in HeLa 229 cells; format: cell-based, human
Protocol: (§2) Cell Culture. Human Chondrosarcoma cell line (Ch-1) was isolated from a portion of chondrosarcoma tumor. […] HUVEC cells were a gift from Dr. William Frazier (Washington University) and were cultured in M199 Earle's medium with 10 units/ml of penicillin, 5 μg/ml streptomycin and 0.25 μg/ml Fungizone supplemented with 10% FBS, 0.1 mg/ml L-glutamine, 25 mM Hepes, 16 units/ml of heparin (Sigma) and 0.1 mg/ml endothelial cell mitogen (Biochemical Technologies).
as §1

MDA-MB231 cells = assay: Cell survival assay in MDA-MB231 cells; format: cell-based, human
Protocol: as §2, §1

siRNA-treated Ch-1 cells = assay: Cell death in integrin αV siRNA-treated Ch-1 cells; format: cell-based, human; conditions: 0.8 μM, serum-free medium, 24 hrs
Protocol: as §1
SiRNA Interference. Ch-1 cells were grown to 60-80% confluence in 6 well plates in Opti-Mem medium (Invitrogen) without antibiotics and serum. A reported method (6) is used in the design of siRNAs, sense and antisense oligonucleotides. The final concentration of oligonucleotides was 0.05 μM. Transfection was performed using a lipofectamine kit (InVitrogen). Half of the wells were stimulated with 200 ng/ml PMA (phorbol 12-myristate 13-acetate) after 4 hours incubation with oligonucleotides. Total RNA was collected via the TriZol method after incubation for 44 hours. 1 μg of total RNA was reverse transcribed with Superscript RT II in a 40 μl volume. […] Bands were quantified with Image Quant software.

HUVEC cells = assay: Tube formation assay; format: cell-based, human
Protocol: Tube Formation Assay. The tube formation assay using HUVEC cells was performed as described with some modification. Briefly, a suspension of 7.5×10^4 cells/well in complete medium was seeded into a Matrigel-coated 24-well plate in the presence of recombinant PIIBNP or GST (0-10 μM). The formation of tubes was evaluated using light microscopy and quantification was performed using a Q Capture Pro imaging software. Branch points per field were counted from three fields for each treatment.

rings of rat aorta = assay: Aortic ring formation assay
Protocol: FIG. 8 depicts a graph and photograph showing rat aortic ring formation. Angiogenesis was assayed by culturing rings of rat aorta in three-dimensional collagen gel. The culture was performed at 37° C. in a humidified environment for a week in the presence FGF and mPIIBNP or PIIBNP (0.1 to 3 mM). The microvessel outgrowth was examined and visualized every second day with an Olympus microscope. The pictures were taken before the measurement of the microvessels. (FIG. 8A) The length of microvessels was measured and total length for each measurement was added (FIG. 8B). PIIBNP inhibited aortic ring formation, with an IC50 of less than 0.1 μM.
Aortic Ring Formation Assay. Angiogenesis was assayed by culturing rings of rat aorta in three-dimensional collagen gels as reported. The cultures were kept at 37° C. in a humidified environment for a week in the presence of FGF and GST or PIIBNP (0.1-10 μM). The microvessel outgrowth was examined every second day with an Olympus microscope. The length of microvessels was measured and total length for each measurement was added.

PIIBNP: Recombinant human Type IIB procollagen NH2-propeptide (exons 3-8, lacking exon 2), expressed as GST fusion protein
adhesion to Ch-1 cells (Ch-1 cells [1]): shown to adhere | adhesion to Ch-1 cells (Ch-1 cells [1]; listed as GST-PIIBNP): strong binding | cell survival (Ch-1 cells [2]): 20-30% | induction of cell death in Ch-1 cells (Ch-1 cells [2]; serum free medium, 24 hrs, type I collagen, fibronectin or Matrigel coated plates): resulted in cell death in a concentration and time-dependent manner; also recorded: induced cell death | cell death (HeLa 229 cells; HeLa 229 cells, FIG. 4M): > 80% | survival (HeLa 229 cells; HeLa cells): 20% | cell survival (MDA-MB231 cells; MDA cells): 30% | cell death (MDA-MB231 cells; MDA-MB231 cells, FIG. 4L): > 70% | induction of cell death in αV siRNA-treated Ch-1 cells (siRNA-treated Ch-1 cells): not able to induce cell death; also recorded: did not induce cell death | tube formation inhibited (HUVEC cells; 0.1 μM): 50% | inhibition of tube formation (HUVEC cells; Matrigel-coated plates, 0-10 μM): able to inhibit the formation of tubes in a dose-dependent manner | inhibition of endothelial outgrowth from rat aorta (rings of rat aorta; freshly isolated rat aorta): able to inhibit endothelial outgrowth in a concentration dependent manner | pIC50 (rings of rat aorta; three-dimensional collagen gel, FGF, a week, read-out: IC50 of inhibition of aortic ring formation): > 7.00
